From patent US20220016092A1, “METHODS FOR TREATING SYMPTOMS AND DISORDERS ASSOCIATED WITH LYSOSOMAL STORAGE DISEASES” (GENZYME CORPORATION, priority 2019, published 2022)
“And” between values parts separate entries of the source, which are not always exact repeats. Equal entries are not always repeated.

Assays:
Format in all cases: in vivo, human
[1] = system: glucosylceramide (GL-1) and glucosylsphingosine (lyso-GL1) in CSF and plasma; assay: Clinical study in GD-3 patients: GL-1 and lyso-GL-1 in CSF and plasma; conditions: 15 mg/day + imiglucerase; for GL-1 in CSF, percent change from baseline, Mean (n = 4) / Lyso-GL1 in CSF, percent change from baseline, Mean (n = 4): excludes Patient 5
Method: (§1) During the study patients were evaluated for safety and tolerability, CSF and plasma biomarkers (glucosylceramide, GL-1; glucosylsphingosine, lyso-GL1), pharmacokinetics, markers for systemic disease (spleen and liver volume measured by magnetic resonance imaging (MRI), platelet count, hemoglobin levels), indicia of interstitial lung disease (high resolution pulmonary computed tomography (CT)), and horizontal saccadic eye movement.
At baseline, the mean (±SD) GL-1 concentration in CSF was 7.1±2.8 ng/mL (range 4.4-11.1 ng/mL), while the mean (±SD) lyso-GL-1 concentration in CSF was 39.3±22.9 pg/mL (range 20.1-67.6 pg/mL). For comparison, the healthy GL-1 concentration in CSF is 4.5-5.9 ng/mL, and the healthy level of lyso-GL-1 in CSF is less than 5.0 pg/mL. […]

[2] = system: adult patients with Gaucher disease Type 3; assay: Clinical study in GD-3 patients: markers for systemic disease (platelets, spleen volume, hemoglobin); conditions: 15 mg/day + imiglucerase
Method: as §1
Individual patient data for platelet counts are shown in the table below (shown as 10^9 platelets/L): […]

[3] = Study 1 Part 2: pharmacokinetics with and without a high-fat meal; conditions: healthy men, single oral 5 mg dose
Description: Study 1 was a 2-part single-center trial in healthy adult male volunteers.
Part 1 of the study enrolled and randomized 55 healthy men (placebo, n=14; 2-, 5-, 15, 25-, 50, and 100-mg doses, n=6 each; 150-mg dose, n=5). Eight healthy men participated in Part 2.
After a 7-day washout period, participants were crossed over to the other condition.

[4] = 4 weeks, individual Patients 1-5
[5] = 26 weeks, individual Patients 1-5 (Patient 5 reduced exposure)

In the case of CC(C)(NC(=O)O[C@@H]1CN2CCC1CC2)c1csc(-c2ccc(F)cc2)n1 [Compound 2, (S)-quinuclidin-3-yl 2-(2-(4-fluorophenyl)thiazol-4-yl)propan-2-ylcarbamate], the “GL-1 in CSF, percent change from baseline, Mean (n = 4)” value ([1]; 4 weeks) is reported as −64%, the “Lyso-GL1 in CSF, percent change from baseline, Mean (n = 4)” value ([1]; 4 weeks) is reported as −32% and the “GL-1 in CSF, percent change from baseline” value [1, 4] is reported as −86% and −55% and −53% and −62% and −36%. The “Lyso-GL1 in CSF, percent change from baseline” value [1, 4] was −38% and −16% and −34% and −39% and −11%, the “GL-1 in CSF, percent change from baseline, Mean (n = 4)” value ([1]; 26 weeks) was −75% and the “Lyso-GL1 in CSF, percent change from baseline, Mean (n = 4)” value ([1]; 26 weeks) was −48%. The “GL-1 in CSF, percent change from baseline” value [1, 5] was −86% and −78% (2×) and −58% and +4%, the “Lyso-GL1 in CSF, percent change from baseline” value [1, 5] was −52% and −42% and −41% and −57% and +94% and the Hemoglobin levels ([2]; 26 weeks) was “no clinically meaningful changes in hemoglobin levels”. The “Platelet count increase in the three patients with lowest baseline platelet counts” value ([2]; 26 weeks) was 23-42%, the “Patients with reductions in splenic volume of 10% or more” value ([2]; 26 weeks (5 patients)) was “Two” and the Systemic deterioration ([2]; 26 weeks, all patients) was “absence of systemic deterioration”. For the same compound, the Platelet count ([2]; Week 4, individual Patients 1-5) was 203 10^9 platelets/L and 243 10^9 platelets/L and 247 10^9 platelets/L and 239 10^9 platelets/L and 154 10^9 platelets/L, the Platelet count ([2]; Week 12, individual Patients 1-5) was 214 10^9 platelets/L and 294 10^9 platelets/L and 264 10^9 platelets/L and 314 10^9 platelets/L and 180 10^9 platelets/L and the Platelet count ([2]; Week 26, individual Patients 1-5) was 264 10^9 platelets/L and 236 10^9 platelets/L and 248 10^9 platelets/L and 267 10^9 platelets/L and 173 10^9 platelets/L. For the same compound, the Hemoglobin levels ([2]; Week 52) was “no clinically meaningful changes in hemoglobin levels”, the “Platelet count maintained by all patients” value ([2]; Week 52) was “greater than 120 ×10^9/L” and the “Patients with spleen volume reductions” value ([2]; Week 52 (six patients)) was “two”. The “Mean platelet concentration increase” value ([2]; Week 52, range −8.2% to +45.3%) was 9.3%, the “Platelet count, % Change from baseline to 26 weeks” value ([2]; individual Patients 1-5) was “+42% and +23% and −4.3% and −13% and +36%” and the “Platelet counts, average rise from baseline” value ([2]; week 26) was 17%. For the same compound, the “Effect of a high-fat meal on exposure compared with fasting conditions” value [3] was “no effect” and the Median tmax ([3]; fed or fasting) was 6.00 h.
